{"source": "patent US11420970B1", "about": "(NOVARTIS AG, priority 2019, dated 2022)", "key": {"[1]": {"system": "cellular H3K36me2 level in multiple myeloma cell line KMS11 (t(4;14)+)", "assay": "H3K36me2 cellular FRET assay in KMS11-Par line", "assay_type": "cell-based", "details": "cellular H3K36me2 level, FRET, read-out: H3K36me2 FRET in KMS11-Par", "procedure": "H3K36Me2 Cellular FRET Assay in KMS11-Par Line\nFluorescence Resonance Energy Transfer (FRET) assay was used to test the ability of candidate compound to reduce cellular H3K36me2 level in multiple myeloma cell line KMS11 (t(4;14)+) (Horizon Discovery Ltd.).\nCells were treated with tested compounds at the desired concentration for 48 hours. […] Histone extract was incubated with Eu labeled anti-H3K36me2 antibody (abcam #ab ab9049) and d2 labeled anti-H3 antibody (abcam #ab1791) for 1 hour at room temperature. A Eu labeled anti-H3 antibody (CISBIO #64CUS000) was used for loading control. The abundancy of H3K36me2 or total H3 was measured by fluorescence signal on Perkin Elmer Envison machine."}, "[2]": {"target": "NSD2 [1-1365] (Homo sapiens (Human), UniProt O96028)", "sequence (O96028 whole entry)": "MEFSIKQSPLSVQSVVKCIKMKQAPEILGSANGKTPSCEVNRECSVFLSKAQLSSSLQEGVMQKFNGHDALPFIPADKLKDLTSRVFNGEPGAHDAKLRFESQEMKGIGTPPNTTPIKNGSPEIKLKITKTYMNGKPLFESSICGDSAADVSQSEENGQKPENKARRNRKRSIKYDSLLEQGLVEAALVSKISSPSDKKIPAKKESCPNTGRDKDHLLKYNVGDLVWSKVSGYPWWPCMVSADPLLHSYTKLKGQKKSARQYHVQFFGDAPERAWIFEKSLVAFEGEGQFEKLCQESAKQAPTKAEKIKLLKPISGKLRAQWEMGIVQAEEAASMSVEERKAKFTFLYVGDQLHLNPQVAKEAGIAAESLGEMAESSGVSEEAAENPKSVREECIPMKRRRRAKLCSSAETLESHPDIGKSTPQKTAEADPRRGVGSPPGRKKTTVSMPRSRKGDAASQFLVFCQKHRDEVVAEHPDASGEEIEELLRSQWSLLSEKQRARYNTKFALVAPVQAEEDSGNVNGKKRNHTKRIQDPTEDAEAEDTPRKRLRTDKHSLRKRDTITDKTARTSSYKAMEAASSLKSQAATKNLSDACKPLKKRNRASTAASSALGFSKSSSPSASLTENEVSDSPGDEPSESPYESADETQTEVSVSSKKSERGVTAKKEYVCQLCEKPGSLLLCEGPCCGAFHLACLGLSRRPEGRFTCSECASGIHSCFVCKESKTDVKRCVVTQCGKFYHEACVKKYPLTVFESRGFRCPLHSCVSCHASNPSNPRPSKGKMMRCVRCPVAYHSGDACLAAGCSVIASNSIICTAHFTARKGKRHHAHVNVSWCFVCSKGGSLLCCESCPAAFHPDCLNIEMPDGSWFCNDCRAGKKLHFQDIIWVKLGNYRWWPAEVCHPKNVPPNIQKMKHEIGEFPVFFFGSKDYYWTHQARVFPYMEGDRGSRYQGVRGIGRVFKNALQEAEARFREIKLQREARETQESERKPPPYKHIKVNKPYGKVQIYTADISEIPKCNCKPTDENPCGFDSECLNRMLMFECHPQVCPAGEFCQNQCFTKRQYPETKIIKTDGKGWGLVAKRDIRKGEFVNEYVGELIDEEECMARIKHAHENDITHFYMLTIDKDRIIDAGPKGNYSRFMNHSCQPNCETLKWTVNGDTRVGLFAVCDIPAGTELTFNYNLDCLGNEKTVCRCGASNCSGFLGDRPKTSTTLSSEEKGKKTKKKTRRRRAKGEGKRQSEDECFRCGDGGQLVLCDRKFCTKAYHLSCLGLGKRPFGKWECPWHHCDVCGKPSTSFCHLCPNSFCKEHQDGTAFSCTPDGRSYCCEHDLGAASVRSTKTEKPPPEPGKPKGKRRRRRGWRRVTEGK", "assay": "LC-MS/MS-based NSD2 enzymatic assay (SAH production)", "assay_type": "biochemical", "details": "NSD2 biochemical activity, class symbols; read-out: NSD2 IC50", "outline": "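SAH formed was measured by LC-MS/MS using d4-SAH as internal standard and an SAH calibration curve. Compounds were preincubated 20 min with NSD2 [1-1365] and SAM; mouse-liver nucleosome then started a 90 min room-temperature reaction (8 nM enzyme, 1 μM SAM, 400 nM nucleosome final, pH 8.0), stopped with TFA.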"}, "[3]": {"details": "Homo sapiens, KMS-11, KMS11-Par line"}}, "note": "Like-named read-outs stand apart in the source and are kept apart here.", "data": [{"smiles": "COC[C@@]1(N)CCCN(c2cnc(-c3cccc(F)c3)cc2Cn2cnc3c(N)ncnc32)C1", "note": "[Example 24, (R)-9-((5-(3-amino-3-(methoxymethyl)piperidin-1-yl)-2-(3-fluorophenyl)pyridin-4-yl)methyl)-9H-purin-6-amine]", "values": [{"measurement": "IC50", "setting": "[1]; [3]", "result": 451, "unit": "nM"}, {"measurement": "IC50", "setting": "[2]", "result": "1 to 10", "unit": "nM"}]}, {"smiles": "COc1ccc(-c2cc(Cn3cnc4c(N)ncnc43)c(N3CCC[C@](N)(COC(C)C)C3)cn2)cc1F", "note": "[Example 25, (R)-9-((5-(3-amino-3-(isopropoxymethyl)piperidin-1-yl)-2-(3-fluoro-4-methoxyphenyl)pyridin-4-yl)methyl)-9H-purin-6-amine]", "values": [{"measurement": "IC50", "setting": "[1]; [3]", "result": 995, "unit": "nM"}, {"measurement": "IC50", "setting": "[2]", "result": "1 to 10", "unit": "nM"}]}, {"smiles": "COC[C@@]1(N)CCCN(c2cnc(-c3cccc(Cl)c3)cc2Cn2cnc3c(N)ncnc32)C1", "note": "[Example 27, (R)-9-((5-(3-amino-3-(methoxymethyl)piperidin-1-yl)-2-(3-chlorophenyl)pyridin-4-yl)methyl)-9H-purin-6-amine]", "values": [{"measurement": "IC50", "setting": "[1]; [3]", "result": 501, "unit": "nM"}, {"measurement": "IC50", "setting": "[2]", "result": "1 to 10", "unit": "nM"}]}, {"smiles": "COC[C@@]1(N)CCCN(c2cnc(-c3ccc(F)cc3F)cc2Cn2cnc3c(N)ncnc32)C1", "note": "[Example 29, (R)-9-((5-(3-amino-3-(methoxymethyl)piperidin-1-yl)-2-(2,4-difluorophenyl)pyridin-4-yl)methyl)-9H-purin-6-amine]", "values": [{"measurement": "IC50", "setting": "[1]; [3]", "result": 225, "unit": "nM"}, {"measurement": "IC50", "setting": "[2]", "result": "1 to 10", "unit": "nM"}]}, {"smiles": "COC[C@@]1(N)CCCN(c2cnc(-c3ccc(OC)cc3F)cc2Cn2cnc3c(N)ncnc32)C1", "note": "[Example 33, (R)-9-((5-(3-amino-3-(methoxymethyl)piperidin-1-yl)-2-(2-fluoro-4-methoxyphenyl)pyridin-4-yl)methyl)-9H-purin-6-amine]", "values": [{"measurement": "IC50", "setting": "[1]; [3]", "result": 1030, "unit": "nM"}, {"measurement": "IC50", "setting": "[2]", "result": "1 to 10", "unit": "nM"}]}, {"smiles": "CC(C)OC[C@@]1(N)CCCN(c2cnc(-c3ccc(F)c(F)c3)cc2Cn2cnc3c(N)ncnc32)C1", "note": "[Example 34, (R)-9-((5-(3-amino-3-(isopropoxymethyl)piperidin-1-yl)-2-(3,4-difluorophenyl)pyridin-4-yl)methyl)-9H-purin-6-amine]", "values": [{"measurement": "IC50", "setting": "[1]; [3]", "result": 1030, "unit": "nM"}, {"measurement": "IC50", "setting": "[2]", "result": "1 to 10", "unit": "nM"}]}, {"smiles": "Nc1ncnc2c1ncn2Cc1cc(-c2cccc(F)c2)ncc1N1CCC[C@](N)(COC2CCC2)C1", "note": "[Example 35, (R)-9-((5-(3-amino-3-(cyclobutoxymethyl)piperidin-1-yl)-2-(3-fluorophenyl)pyridin-4-yl)methyl)-9H-purin-6-amine]", "values": [{"measurement": "IC50", "setting": "[1]; [3]", "result": 610, "unit": "nM"}, {"measurement": "IC50", "setting": "[2]", "result": "1 to 10", "unit": "nM"}]}, {"smiles": "Nc1ncnc2c1ncn2Cc1cc(-c2ccc(F)cc2)ncc1N1CCC[C@](N)(COC2CCC2)C1", "note": "[Example 36, (R)-9-((5-(3-amino-3-(cyclobutoxymethyl)piperidin-1-yl)-2-(4-fluorophenyl)pyridin-4-yl)methyl)-9H-purin-6-amine]", "values": [{"measurement": "IC50", "setting": "[1]; [3]", "result": 416, "unit": "nM"}, {"measurement": "IC50", "setting": "[2]", "result": "10 to 1000", "unit": "nM"}]}, {"smiles": "COC[C@@]1(N)CCCN(c2cnc(-c3ccc(OC)c(F)c3)cc2Cn2cnc3c(N)ncnc32)C1", "note": "[Example 38, (R)-9-((5-(3-amino-3-(methoxymethyl)piperidin-1-yl)-2-(3-fluoro-4-methoxyphenyl)pyridin-4-yl)methyl)-9H-purin-6-amine]", "values": [{"measurement": "IC50", "setting": "[1]; KMS11-Par line", "result": 721, "unit": "nM"}, {"measurement": "IC50", "setting": "[2]", "result": "10 to 1000", "unit": "nM"}]}, {"smiles": "COc1ccc(-c2cc(Cn3cnc4c(N)ncnc43)c(N3CCC[C@](N)(COCC(F)(F)F)C3)cn2)cc1F", "note": "[Example 39, (R)-9-((5-(3-amino-3-((2,2,2-trifluoroethoxy)methyl)piperidin-1-yl)-2-(3-fluoro-4-methoxyphenyl)pyridin-4-yl)methyl)-9H-purin-6-amine]", "values": [{"measurement": "IC50", "setting": "[1]; [3]", "result": 2560, "unit": "nM"}, {"measurement": "IC50", "setting": "[2]", "result": "10 to 1000", "unit": "nM"}]}, {"smiles": "Nc1ncnc2c1ncn2Cc1cc(-c2cccc(F)c2)ncc1N1CCC[C@](N)(COC(F)F)C1", "note": "[Example 40, (R)-9-((5-(3-amino-3-((difluoromethoxy)methyl)piperidin-1-yl)-2-(3-fluorophenyl)pyridin-4-yl)methyl)-9H-purin-6-amine]", "values": [{"measurement": "IC50", "setting": "[1]; [3]", "result": 770, "unit": "nM"}, {"measurement": "IC50", "setting": "[2]", "result": "10 to 1000", "unit": "nM"}]}, {"smiles": "Nc1ncnc2c1ncn2Cc1cc(-c2ccc(F)c(F)c2)ncc1N1CCC[C@](N)(COCC(F)(F)F)C1", "note": "[Example 43, (R)-9-((5-(3-amino-3-((2,2,2-trifluoroethoxy)methyl)piperidin-1-yl)-2-(3,4-difluorophenyl)pyridin-4-yl)methyl)-9H-purin-6-amine]", "values": [{"measurement": "IC50", "setting": "[1]; [3]", "result": 1240, "unit": "nM"}, {"measurement": "IC50", "setting": "[2]", "result": "10 to 1000", "unit": "nM"}]}, {"smiles": "Nc1ncnc2c1ncn2Cc1cc(-c2ccc(F)cc2)ncc1N1CCC[C@](N)(COC(F)F)C1", "note": "[Example 44, (R)-9-((5-(3-amino-3-((difluoromethoxy)methyl)piperidin-1-yl)-2-(4-fluorophenyl)pyridin-4-yl)methyl)-9H-purin-6-amine]", "values": [{"measurement": "IC50", "setting": "[1]; [3]", "result": 1620, "unit": "nM"}, {"measurement": "IC50", "setting": "[2]", "result": "10 to 1000", "unit": "nM"}]}, {"smiles": "Nc1ncnc2c1ncn2Cc1cc(-c2ccc(F)cc2)ncc1N1CCC[C@](N)(COCC(F)(F)F)C1", "note": "[Example 45, (R)-9-((5-(3-amino-3-((2,2,2-trifluoroethoxy)methyl)piperidin-1-yl)-2-(4-fluorophenyl)pyridin-4-yl)methyl)-9H-purin-6-amine]", "values": [{"measurement": "IC50", "setting": "[1]; [3]", "result": 705, "unit": "nM"}, {"measurement": "IC50", "setting": "[2]", "result": "10 to 1000", "unit": "nM"}]}, {"smiles": "COC[C@@]1(N)CCCN(c2cnc(-c3ccc(OC)c(F)c3)cc2Cn2cnc3c(N)ncnc32)C1", "note": "[Example 46]", "values": [{"measurement": "IC50", "setting": "[1]; KMS11-Par line", "result": 315, "unit": "nM"}, {"measurement": "IC50", "setting": "[2]", "result": "1 to 10", "unit": "nM"}]}, {"smiles": "Nc1ncnc2c1ncn2Cc1cc(-c2ccc(F)c(F)c2)ncc1N1CCC[C@](N)(Cc2nccs2)C1", "note": "[Example 53, (S)-9-((5-(3-amino-3-(thiazol-2-ylmethyl)piperidin-1-yl)-2-(3,4-difluorophenyl)pyridin-4-yl)methyl)-9H-purin-6-amine]", "values": [{"measurement": "IC50", "setting": "[1]; [3]", "result": 327, "unit": "nM"}, {"measurement": "IC50", "setting": "[2]", "result": "1 to 10", "unit": "nM"}]}, {"smiles": "Nc1ncnc2c1ncn2Cc1cc(-c2cccc(F)c2)ncc1N1CCC[C@](N)(CC(=O)O)C1", "note": "[Example 58, (S)-2-(3-amino-1-(4-((6-amino-9H-purin-9-yl)methyl)-6-(3-fluorophenyl)pyridin-3-yl)piperidin-3-yl)acetic acid]", "values": [{"measurement": "IC50", "setting": "[1]; [3]", "result": 2640, "unit": "nM"}, {"measurement": "IC50", "setting": "[2]", "result": "1 to 10", "unit": "nM"}]}, {"smiles": "CN(C)C(=O)C[C@@]1(N)CCCN(c2cnc(-c3ccc(F)c(F)c3)cc2Cn2cnc3c(N)nccc32)C1", "note": "[Example 59, (S)-2-(3-amino-1-(4-((4-amino-1H-imidazo[4,5-c]pyridin-1-yl)methyl)-6-(3,4-difluorophenyl)pyridin-3-yl)piperidin-3-yl)-N,N-dimethylacetamide]", "values": [{"measurement": "IC50", "setting": "[1]; [3]", "result": 33300, "unit": "nM"}, {"measurement": "IC50", "setting": "[2]", "result": "1 to 10", "unit": "nM"}]}, {"smiles": "CNC(=O)CC1(N)CCCN(c2cnc(-c3cccc(F)c3)cc2Cn2cnc3c(N)ncnc32)C1", "note": "(centres unmarked) [Example 66, 2-(3-amino-1-(4-((6-amino-9H-purin-9-yl)methyl)-6-(3-fluorophenyl)pyridin-3-yl)piperidin-3-yl)-N-methylacetamide]", "values": [{"measurement": "IC50", "setting": "[1]; [3]", "result": 118000, "unit": "nM"}, {"measurement": "IC50", "setting": "[2]", "result": "10 to 1000", "unit": "nM"}]}, {"smiles": "CNC(=O)CC1(N)CCCN(c2cnc(-c3ccc(F)c(F)c3)cc2Cn2cnc3c(N)ncc(Cl)c32)C1", "note": "(centres unmarked) [Example 67, 2-(3-amino-1-(4-((4-amino-7-chloro-1H-imidazo[4,5-c]pyridin-1-yl)methyl)-6-(3,4-difluorophenyl)pyridin-3-yl)piperidin-3-yl)-N-methylacetamide]", "values": [{"measurement": "IC50", "setting": "[1]; [3]", "result": 4250, "unit": "nM"}, {"measurement": "IC50", "setting": "[2]", "result": "10 to 1000", "unit": "nM"}]}, {"smiles": "CN(C)C(=O)C[C@@]1(N)CCCN(c2cnc(-c3cccc(F)c3)cc2Cn2cnc3c(N)ncnc32)C1", "note": "[Example 70, (S)-2-(3-amino-1-(4-((6-amino-9H-purin-9-yl)methyl)-6-(3-fluorophenyl)pyridin-3-yl)piperidin-3-yl)-N,N-dimethylacetamide]", "values": [{"measurement": "IC50", "setting": "[1]; [3]", "result": 9440, "unit": "nM"}, {"measurement": "IC50", "setting": "[2]", "result": "10 to 1000", "unit": "nM"}]}, {"smiles": "Nc1ncnc2c1ncn2Cc1cc(-c2ccc(F)cc2)ncc1N1CCC[C@](N)(CC(F)F)C1", "note": "[Example 71, (S)-9-((5-(3-amino-3-(2,2-difluoroethyl)piperidin-1-yl)-2-(4-fluorophenyl)pyridin-4-yl)methyl)-9H-purin-6-amine]", "values": [{"measurement": "IC50", "setting": "[1]; [3]", "result": 849, "unit": "nM"}, {"measurement": "IC50", "setting": "[2]", "result": "10 to 1000", "unit": "nM"}]}]}
